The values that follow come from patent publication US4560545A, “Basic aluminum magnesium carbonate” (Anphar S.A., priority 1978, dated 1985).

Like-named read-outs stand apart in the source and are kept apart here.

Test [1] can be described thus: antacid activity in simulated gastric juice (modified Holbert technique, automatic titrator). It is filed as physicochemical. The conditions noted are these: for Vol. of gastric juice added: added at 0.7 ml/min. until pH fell below 3; for pH of suspension after 1 min.: about 0.125 g powder in 20 ml, 37° C. Here is the method:
Approximately 0.125 g of powder was added to 20 ml of simulated gastric juice (U.S.P.) and stirred vigorously at 37° C. The pH was registered at 1, 5 and 10 minutes and then the automatic burette was started and synthetic gastric juice was added at a rate of 0.7 ml/min. until the pH fell below 3. The time taken and the amount of gastric juice added to reach pH 3 was observed.

How the values of test [2] were obtained: The ability of compound I to absorb bile acids was measured at pH 7 and pH 4 (the analytical method was based on the reaction between sulphuric acid, furfural and cholic acid; Pettenkofer, Ann. Chem. Pharm. 52, 90, 1884). The product was suspended in the appropriate buffer and a solution of the bile acid or ox bile was added, samples being taken at intervals of time.

Test [3] relates to ulcers. The test is described as follows: 18 hour pyloric ligature: incidence of ulcers. Format: in vivo. The conditions noted are these: rats, 18 hours ligature.
Another test concerns gastric acid secretion. The conditions noted are these: human volunteers, pentagastrin 6 μg/kg i.m., 1 g suspension 30 minutes later, versus aluminium hydroxide gel. Here is the method: Gastric acid secretion was induced by injection of pentagastrin (6 μg/kg i.m.). Thirty minutes later a suspension of 1 g of compound I or aluminium hydroxide was given (2 groups of 6 volunteers, double blind parallel). Samples of gastric juice were taken before giving pentagastrin (basal level), 30 minutes after injection of pentagastrin and at intervals of 30, 60, 90 and 120 minutes after giving the antacids. In each case the pH, free acid content and pepsin content were measured.

The conditions of test [4]: pH stat, pH 4, suspension in water.
The subject of test [5] is ulcers. The test is described as follows: bile-sensitized stomach, ulcerogenic action of indomethacin. The conditions noted are these: rat stomach sensitized with bile, 31.25-125 mg/kg orally.
Description: (§1) In a further series of experiments the detergent action of bile was used to sensitize the rat stomach to the ulcerogenic action of indomethacin.
A further test concerns pepsin. The conditions noted are these: rats, 4 hour ligature; for reduction of pepsin enzyme activity of gastric juice: at the higher doses.
Test [6] can be described thus: 4 hour pyloric ligature of the stomach: pH and total acid content of stomach contents. The conditions noted are these: rats, 31.25-500 mg/kg orally 1 hour before sacrifice.
Description: as §1
The mark [7] stands for this setting: gastric juice DP, double quantity of pepsin.
Setting [8] is: gastric juice DP, with double quantity of pepsin.
Where [9] appears, read: gastric juice N, normal U.S.P. simulated gastric juice.
[10] abbreviates: gastric juice SP, without pepsin.

Description for pepsin: as §1

On to Magaldrate U.S.P. [F2], for which the “Vol. of gastric juice added” value is 2.40 mL in test [1] (setting [7]); 1.70 mL in test [1] (gastric juice N, normal U.S.P.); 1.92 mL in test [1] (setting [10]). Moreover, the entries for the “pH of suspension after 1 min.” value in test [1] (setting [8]), in test [1] (setting [9]) and in test [1] (setting [10]) were 2.65, 1.95 and 1.40, respectively.
Regarding “basic aluminium magnesium carbonate [compound I]”, in test [1] (U.S.P. simulated gastric juice), the buffering capacity entry is given as “highest buffering capacity”. In addition, the “Vol. of gastric juice added” value in test [1] (setting [7]) was 22.36 mL; in test [1] (gastric juice N, normal U.S.P.), 21.2 mL; in test [1] (setting [10]), 10.9 mL. Also, the results for the “pH of suspension after 1 min.” value in test [1] (setting [8]), in test [1] (setting [9]) and in test [1] (setting [10]) were 4.55, 4.25 and 4.00, respectively. In addition, the velocity of neutralisation result in test [1] (pH after 1 minute in the optimal zone, pH 3-5) is on record as “high velocity of neutralisation”. Also, in test [1] (simulated gastric juice with pepsin versus without), the “ability to absorb acid in the presence of pepsin” value is given as “increased ability to absorb acid in the presence of pepsin”. For the same compound, the “Percentage absorption of bile acids” value in test [2] (Cholic Acid, Buffer pH 4, 1 hr) was found to be 80.5 Percentage; in test [2] (Cholic Acid, Buffer pH 4, 3 hr), 86.3 Percentage; in test [2] (Cholic Acid, Buffer pH 7, 1 hr), 0 Percentage; in test [2] (Cholic Acid, Buffer pH 7, 3 hr) it was 12 Percentage; in test [2] (Ox bile, Buffer pH 4, 1 hr) it was 69.0 Percentage; in test [2] (Ox bile, Buffer pH 4, 3 hr), 70.0 Percentage. Moreover, the “Percentage absorption of bile acids” value in test [2] (Ox bile, Buffer pH 7, 1 hr) is given as 17.3 Percentage; in test [2] (Ox bile, Buffer pH 7, 3 hr), 25.8 Percentage; in test [2] (Taurocholic acid, Buffer pH 4, 1 hr), 65.4 Percentage; in test [2] (Taurocholic acid, Buffer pH 4, 3 hr), 71.7 Percentage; in test [2] (Taurocholic acid, Buffer pH 7, 1 hr) it was 0.6 Percentage; in test [2] (Taurocholic acid, Buffer pH 7, 3 hr), 20.8 Percentage. The “reduction in the incidence of ulcers compared with placebo treated controls” value with ulcers [3] (31.25 mg/kg orally at the same time as the operation) came out at 58%. Also, in the test with gastric acid secretion, the “antipepsin effect (pepsin content of gastric juice)” value is reported as “greater antipepsin effect”. In addition, the “reduction of free hydrochloric acid levels in gastric juice” value in the test on gastric acid secretion is “reduced the free hydrochloric acid levels more rapidly and had a longer duration of action than aluminium hydroxide gel”. Further, in test [4], the acid-binding capacity result is listed as “higher at pH 4 than any of the other substances”. Further, the “reduction of the incidence of ulcers (inhibition)” value with ulcers [5] is given as “up to 54%”. The “reduction of pepsin enzyme activity of gastric juice” value with pepsin is listed as 78.9%. Besides, in the test on pepsin (higher doses, pH readjusted to 2 (optimal for pepsin activity)), the “reduction of pepsin enzyme activity, pH of the gastric juice readjusted to 2” value turned out to be 32.5%. The “effect on pH of the stomach contents” value in test [6] is listed as “dose dependent increases in the pH of the stomach contents”. Moreover, the “reduction of total acid content” value in test [6] is “up to 85%”.
For `[OH][Al]([OH])[OH]` [aluminium hydroxide, reference compound], the reduction in ulceration with ulcers [3] (125 mg/kg) is reported as 43%. The “reduction of the incidence of ulcers (inhibition)” value in the test on ulcers [5] stood at 32%. For the same compound, the “reduction of pepsin enzyme activity of gastric juice” value with pepsin is “without effect on the pepsin activity”. Also, in test [6], the “effect on pH of the stomach contents” value is “much less influence on pH” and the “reduction of total acid content” value stood at 12%.
As for dry aluminium hydroxide gel U.S.P. [F1], the “Vol. of gastric juice added” value in test [1] (setting [7]) was 4.80 mL; in test [1] (gastric juice N, normal U.S.P.) it was 7.40 mL; in test [1] (setting [10]), 17.43 mL. Besides, the “pH of suspension after 1 min.” value in test [1] (setting [8]) was 2.79; in test [1] (setting [9]), 2.93; in test [1] (setting [10]), 3.30.
